PubChem BioAssay (NCI)
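Test compounds were applied to cells in 96-well plates for 48 hours at 5 doses. GI50 marks 50% less growth. TGI marks complete inhibition of growth.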

Tests used:
Experiment in all cases: NCI anticancer screen, dose series, 48 h
NCI-H522 lung = tested on: NCI-H522 lung
786-0 renal = tested on: 786-0 renal
SK-MEL-2 melanoma = tested on: SK-MEL-2 melanoma
RXF 393 renal = tested on: RXF 393 renal
NCI-H23 lung = tested on: NCI-H23 lung
M14 melanoma = tested on: M14 melanoma
CCRF-CEM leukemia = tested on: CCRF-CEM leukemia
HCC-2998 colon = tested on: HCC-2998 colon
MDA-MB-231 breast = tested on: MDA-MB-231 breast
TK-10 renal = tested on: TK-10 renal
OVCAR-4 ovarian = tested on: OVCAR-4 ovarian
NCI-H460 lung = tested on: NCI-H460 lung
OVCAR-3 ovarian = tested on: OVCAR-3 ovarian
BT-549 breast = tested on: BT-549 breast
SK-MEL-5 melanoma = tested on: SK-MEL-5 melanoma
K-562 leukemia = tested on: K-562 leukemia
SW-620 colon = tested on: SW-620 colon
EKVX NSCLC = tested on: EKVX NSCLC
HS 578T breast = tested on: HS 578T breast
CAKI-1 renal = tested on: CAKI-1 renal
OVCAR-8 ovarian = tested on: OVCAR-8 ovarian
UO-31 renal = tested on: UO-31 renal
HCT-116 colon = tested on: HCT-116 colon
SN12C renal = tested on: SN12C renal
SNB-19 CNS = tested on: SNB-19 CNS
HCT-15 colon = tested on: HCT-15 colon
MALME-3M melanoma = tested on: MALME-3M melanoma
IGROV1 ovarian = tested on: IGROV1 ovarian
DU-145 prostate = tested on: DU-145 prostate
KM12 colon = tested on: KM12 colon
PC-3 prostate = tested on: PC-3 prostate
MCF7 breast = tested on: MCF7 breast
NCI-H226 lung = tested on: NCI-H226 lung
ACHN renal = tested on: ACHN renal
HOP-92 NSCLC = tested on: HOP-92 NSCLC
LOX IMVI melanoma = tested on: LOX IMVI melanoma
SNB-75 CNS = tested on: SNB-75 CNS
RPMI-8226 leukemia = tested on: RPMI-8226 leukemia
HT29 colon = tested on: HT29 colon
UACC-62 melanoma = tested on: UACC-62 melanoma
SR leukemia = tested on: SR leukemia
OVCAR-5 ovarian = tested on: OVCAR-5 ovarian
A498 renal = tested on: A498 renal
SF-539 CNS = tested on: SF-539 CNS
U251 CNS = tested on: U251 CNS
A549 NSCLC = tested on: A549 NSCLC
COLO 205 colon = tested on: COLO 205 colon
SK-OV-3 ovarian = tested on: SK-OV-3 ovarian
HOP-62 NSCLC = tested on: HOP-62 NSCLC
MDA-MB-435 = tested on: MDA-MB-435
HL-60(TB) leukemia = tested on: HL-60(TB) leukemia
T-47D breast = tested on: T-47D breast
NCI/ADR-RES ovarian = tested on: NCI/ADR-RES ovarian
SK-MEL-28 melanoma = tested on: SK-MEL-28 melanoma
SF-295 CNS = tested on: SF-295 CNS
UACC-257 melanoma = tested on: UACC-257 melanoma
SF-268 CNS = tested on: SF-268 CNS

With Cc1ccnc2c1ccc1c(C)ccnc12 the GI50 (NCI-H522 lung) was 608 nM, the TGI (NCI-H522 lung) was 4970 nM and the GI50 (786-0 renal) was 327 nM. The TGI (786-0 renal) was 10900 nM, the GI50 (SK-MEL-2 melanoma) was 504 nM and the TGI (SK-MEL-2 melanoma) was 18300 nM. It also gave a GI50 (RXF 393 renal) of 729 nM, a TGI (RXF 393 renal) of 15100 nM and a GI50 (NCI-H23 lung) of 741 nM. It also gave a TGI (NCI-H23 lung) of 20200 nM, a GI50 (M14 melanoma) of 294 nM and a TGI (M14 melanoma) of 10200 nM. The GI50 (CCRF-CEM leukemia) was 361 nM, the TGI (CCRF-CEM leukemia) was 3000 nM and the GI50 (HCC-2998 colon) was 381 nM. It also gave a TGI (HCC-2998 colon) of 15100 nM, a GI50 (MDA-MB-231 breast) of 673 nM and a TGI (MDA-MB-231 breast) of 21300 nM. For the same compound, the GI50 (TK-10 renal) was 588 nM, the TGI (TK-10 renal) was 14600 nM and the GI50 (OVCAR-4 ovarian) was 316 nM. The TGI (OVCAR-4 ovarian) was 4230 nM, the GI50 (NCI-H460 lung) was 339 nM and the TGI (NCI-H460 lung) was 11300 nM. For the same compound, the GI50 (OVCAR-3 ovarian) was 526 nM, the TGI (OVCAR-3 ovarian) was 11400 nM and the GI50 (BT-549 breast) was 521 nM. It also gave a TGI (BT-549 breast) of 14300 nM, a GI50 (SK-MEL-5 melanoma) of 303 nM and a TGI (SK-MEL-5 melanoma) of 11800 nM. For the same compound, the GI50 (K-562 leukemia) was 395 nM, the TGI (K-562 leukemia) was 25900 nM and the GI50 (SW-620 colon) was 429 nM. It also gave a TGI (SW-620 colon) of 15900 nM, a GI50 (EKVX NSCLC) of 389 nM and a TGI (EKVX NSCLC) of 12700 nM. It also gave a GI50 (HS 578T breast) of 3950 nM, a TGI (HS 578T breast) of over 100000 nM and a GI50 (CAKI-1 renal) of 209 nM. The TGI (CAKI-1 renal) was 10000 nM, the GI50 (OVCAR-8 ovarian) was 397 nM and the TGI (OVCAR-8 ovarian) was 14100 nM. It also gave a GI50 (UO-31 renal) of 246 nM, a TGI (UO-31 renal) of 2910 nM and a GI50 (HCT-116 colon) of 418 nM. For the same compound, the TGI (HCT-116 colon) was 13000 nM, the GI50 (SN12C renal) was 441 nM and the TGI (SN12C renal) was 13100 nM. For the same compound, the GI50 (SNB-19 CNS) was 592 nM, the TGI (SNB-19 CNS) was 13900 nM and the GI50 (HCT-15 colon) was 383 nM. It also gave a TGI (HCT-15 colon) of 10400 nM, a GI50 (MALME-3M melanoma) of 364 nM and a TGI (MALME-3M melanoma) of 5270 nM. It also gave a GI50 (IGROV1 ovarian) of 471 nM, a TGI (IGROV1 ovarian) of 13600 nM and a GI50 (DU-145 prostate) of 501 nM. It also gave a TGI (DU-145 prostate) of 14200 nM, a GI50 (KM12 colon) of 504 nM and a TGI (KM12 colon) of 12000 nM. The GI50 (PC-3 prostate) was 430 nM, the TGI (PC-3 prostate) was 15500 nM and the GI50 (MCF7 breast) was 343 nM. The TGI (MCF7 breast) was 12400 nM, the GI50 (NCI-H226 lung) was 412 nM and the TGI (NCI-H226 lung) was 8210 nM. The GI50 (ACHN renal) was 357 nM, the TGI (ACHN renal) was 10500 nM and the GI50 (HOP-92 NSCLC) was 656 nM. It also gave a TGI (HOP-92 NSCLC) of 16100 nM, a GI50 (LOX IMVI melanoma) of 367 nM and a TGI (LOX IMVI melanoma) of 4660 nM. It also gave a GI50 (SNB-75 CNS) of 840 nM, a TGI (SNB-75 CNS) of 14600 nM and a GI50 (RPMI-8226 leukemia) of 468 nM. For the same compound, the TGI (RPMI-8226 leukemia) was 14300 nM, the GI50 (HT29 colon) was 491 nM and the TGI (HT29 colon) was 12600 nM. For the same compound, the GI50 (UACC-62 melanoma) was 288 nM, the TGI (UACC-62 melanoma) was 1030 nM and the GI50 (SR leukemia) was 382 nM. It also gave a TGI (SR leukemia) of over 100000 nM, a GI50 (OVCAR-5 ovarian) of 750 nM and a TGI (OVCAR-5 ovarian) of 19000 nM. It also gave a GI50 (A498 renal) of 327 nM, a TGI (A498 renal) of 3710 nM and a GI50 (SF-539 CNS) of 316 nM. It also gave a TGI (SF-539 CNS) of 5060 nM, a GI50 (U251 CNS) of 419 nM and a TGI (U251 CNS) of 11500 nM. For the same compound, the GI50 (A549 NSCLC) was 386 nM, the TGI (A549 NSCLC) was 11400 nM and the GI50 (COLO 205 colon) was 568 nM. For the same compound, the TGI (COLO 205 colon) was 13000 nM, the GI50 (SK-OV-3 ovarian) was 526 nM and the TGI (SK-OV-3 ovarian) was 9610 nM. It also gave a GI50 (HOP-62 NSCLC) of 508 nM, a TGI (HOP-62 NSCLC) of 12600 nM and a GI50 (MDA-MB-435) of 481 nM. It also gave a TGI (MDA-MB-435) of 13100 nM, a GI50 (HL-60(TB) leukemia) of 328 nM and a TGI (HL-60(TB) leukemia) of 2390 nM. For the same compound, the GI50 (T-47D breast) was 883 nM, the TGI (T-47D breast) was 12600 nM and the GI50 (NCI/ADR-RES ovarian) was 204 nM. The TGI (NCI/ADR-RES ovarian) was 1790 nM, the GI50 (SK-MEL-28 melanoma) was 491 nM and the TGI (SK-MEL-28 melanoma) was 14200 nM. It also gave a GI50 (SF-295 CNS) of 371 nM, a TGI (SF-295 CNS) of 11700 nM and a GI50 (UACC-257 melanoma) of 508 nM. The TGI (UACC-257 melanoma) was 7600 nM, the GI50 (SF-268 CNS) was 454 nM and the TGI (SF-268 CNS) was 14600 nM.
